From patent US9861104B2, “Method for producing an aqueous suspension concentrate formulation of a pyripyropene insecticide” (BASF SE, priority 2012, dated 2018)

Assay: Conversion of the aqueous slurry into form B, followed by XRPD
Assay type: physicochemical
Conditions: 30 parts Insecticide A / 70 parts water, stirred
Protocol: The recorded 2θ values were used to calculate the stated interplanar spacings d. The intensity of the peaks (y-axis: linear intensity counts) is plotted versus the 2θ angle (x-axis in degrees 2θ). The formulation was prepared as follows: • (a) 30 parts by weight of Insecticide A, in the form of a powder, and 70 parts by weight of water were mixed in a vessel to obtain an aqueous slurry. The particle diameter of the particles was in the range 30-800 μm. […] The temperature of grinding head was controlled at 5° C. The milling was stopped when an average particle size of 1.5-2 μm (volume average) had been achieved (measured with Malvern Mastersizer 2000). To the thus obtained suspension the remaining antifoaming agent, the preservative and the thickener and water were added to with stirring to ensure homogeneous distribution of components. The amount of water was chosen that the final concentration of the pyripyropene derivative in the formulation was 100 g/l.

C[C@]1(COC(=O)C2CC2)[C@@H]2C[C@H](O)[C@@]3(C)Oc4cc(-c5cccnc5)oc(=O)c4[C@H](O)[C@@H]3[C@@]2(C)CC[C@@H]1OC(=O)C1CC1 [Insecticide A]
Conversion time (conversion of at least 90% into form B) (20° C.): <190 h
Conversion time (conversion of at least 90% into form B) (40° C.): <48 h
Conversion time (conversion of at least 90% into form B) (60° C.): 12 h
